From patent publication US20210024507A1, “Compounds” (Step Pharma S.A.S., priority 2018, published 2021) come the findings set out here.

Where only a bound is given, the exact number is not on record here.

For the test, the target named is T1, human CTPS1 (Homo sapiens, UniProt P17812).
T1 construct: purchased Proteros biostructures GmbH
T1 sequence (P17812 1-591): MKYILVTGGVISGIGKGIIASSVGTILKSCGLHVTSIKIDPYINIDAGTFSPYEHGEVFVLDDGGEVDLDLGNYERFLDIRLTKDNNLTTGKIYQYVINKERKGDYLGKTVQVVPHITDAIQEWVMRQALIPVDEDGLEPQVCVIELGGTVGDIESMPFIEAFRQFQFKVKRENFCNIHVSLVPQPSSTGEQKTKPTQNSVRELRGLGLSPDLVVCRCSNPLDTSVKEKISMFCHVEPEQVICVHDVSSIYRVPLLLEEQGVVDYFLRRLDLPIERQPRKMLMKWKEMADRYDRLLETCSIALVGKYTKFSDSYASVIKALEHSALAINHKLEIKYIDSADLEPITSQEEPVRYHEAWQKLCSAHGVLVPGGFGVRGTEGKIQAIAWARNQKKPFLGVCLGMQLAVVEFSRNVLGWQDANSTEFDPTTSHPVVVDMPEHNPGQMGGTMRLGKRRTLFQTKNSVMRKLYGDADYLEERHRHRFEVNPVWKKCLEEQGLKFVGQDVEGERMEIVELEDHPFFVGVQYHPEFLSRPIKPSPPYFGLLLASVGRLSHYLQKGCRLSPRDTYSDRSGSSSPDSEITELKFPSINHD
The test is described as follows: Human CTPS1 enzyme inhibition (ADP-Glo Max assay). In kind it is biochemical. As to conditions: human full length CTPS1, 25° C., read-out: CTPS1 (Human CTPS1 Enzyme Inhibition, IC50 grouped by potency range). On the procedure:
The enzyme inhibitory activities of compounds invented against the target of interest were determined using the ADP-GIoTM Max assay (Promega, UK). Assays for human CTPS1 were performed in lx assay buffer containing 50mM Tris, 10mM MgCl2, 0.01% Tween-20, pH to 8.0 accordingly. Finally, immediately before use, L-cysteine was added to the lx assay buffer to a final concentration of 2mM. All reagents are from Sigma-Aldrich unless specified otherwise. Human full length active C-terminal FLAG-Hiss-tag CTPS1 (UniProtKB - P17812, CTPS[1-591]-[…]) was obtained from Proteros biostructures GmbH.
Assay Procedure 3× human CTPS1 protein was prepared in lx assay buffer to the final working protein concentration required for the reaction. A 2uL volume per well of 3x human CTPS1 protein was mixed with 2uL per well of 3× test compound (compound prepared in lx assay buffer to an appropriate final 3× compound concentration respective to the concentration response curve designed for the compounds under test) for 10 minutes at 25° C. The enzymatic reaction was then initiated by addition of a 2uL per well volume of a pre-mixed substrate mix (UltraPure ATP from ADP-GIo™ Max kit (0.31mM), GTP (0.034mM), UTP (0.48mM) and L-glutamine (0.186mM)) and the mixture was incubated for an appropriate amount of time within the determined linear phase of the reaction at 25° C. under sealed plate conditions with constant agitation at 500 revolutions per minute (rpm). ADP-GIo™ Max reagent was added for 60 minutes ([…] per well) and subsequently ADP-GIo™ Max development reagent was added for 60 minutes (12uL per well) prior to signal detection in a microplate reader (EnVision® Multilabel Reader, Perkin Elmer). Following each reagent addition over the course of the assay, assay plates were pulse centrifuged for 30 seconds at 500rpm.
In all cases, the enzyme converts ATP to ADP and the ADP-GIo™ Max reagent subsequently depletes any remaining endogenous ATP in the reaction system. The ADP-GIo™ Max detection reagent converts the ADP that has been enzymatically produced back into ATP and using ATP as a substrate together with luciferin for the enzyme luciferase, light is generated which produces a detectable luminescence. […] The percentage inhibition produced by each concentration of compound was calculated using the equation shown below: […]
Percentage inhibition was then plotted against compound concentration, and the 50% inhibitory concentration (IC50) was determined from the resultant concentration-response curve.
For orientation: ADP-Glo turns the ADP formed in a reaction into a luminescent signal.
One may read the IC50 as the midpoint of a concentration-inhibition curve. Turning to `CCC(C(=O)Nc1ccc(-c2cccnc2)cc1)c1ccnc(NS(=O)(=O)C2CC2)n1` (centres unmarked) [P102, 2-(2-(cyclopropanesulfonamido)pyrimidin-4-yl)-N-(4-(pyridin-3-yl)phenyl)butanamide], the IC50 lay in the range of 100 to 1000 nM.

Turning to `CCOc1cncc(-c2ccc(C(=O)NC(CC)c3cncc(NS(=O)(=O)C4CC4)n3)c(F)c2)n1` (centres unmarked) [P223, N-(1-(6-(cyclopropanesulfonamido)pyrazin-2-yl)propyl)-4-(6-ethoxypyrazin-2-yl)-2-fluorobenzamide], the IC50 lay within 100 to 1000 nM.

For the compound `CCOc1cncc(-c2ccc(NC(=O)C(CC)c3nccc(NS(=O)(=O)C4CC4)n3)nc2)n1` (centres unmarked) [P208, 2-(4-(cyclopropanesulfonamido)pyrimidin-2-yl)-N-(5-(6-ethoxypyrazin-2-yl)pyridin-2-yl)butanamide], the IC50 is at most 100 nM.

Turning to `CCC(C(=O)Nc1ccc(-c2cncc(Cl)c2)cc1)c1cccc(NS(=O)(=O)C2CC2)n1` (centres unmarked) [P189, N-(4-(5-chloropyridin-3-yl)phenyl)-2-(6-(cyclopropanesulfonamido)pyridin-2-yl)butanamide], the IC50 is 1000 to 10000 nM.

Regarding `CCC(C(=O)Nc1ccc(-c2cncc(C#N)c2)cc1)c1ccnc(NS(=O)(=O)C2CC2)n1` (centres unmarked) [P99, N-(4-(5-cyanopyridin-3-yl)phenyI)-2-(2-(cyclopropanesulfonamido)pyrimidin-4-yl)butanamide], the half-maximal inhibitory concentration (IC50) is 100 to 1000 nM.

Take `CCOc1cncc(-c2ccc(NC(=O)C(OC)c3cncc(NS(=O)(=O)C4CC4)n3)cc2)n1` (centres unmarked) [P204, 2-(6-(cyclopropanesulfonamido)pyrazin-2-yl)-N-(4-(6-ethoxypyrazin-2-yl)phenyl)-2-methoxyacetamide]: the IC50 was at most 100 nM.

On to `CCC(C(=O)Nc1ccc(-c2cncc(OC)n2)cc1)c1ccnc(NS(=O)(=O)C2CC2)n1` (centres unmarked) [P106, 2-(2-(cyclopropanesulfonamido)pyrimidin-4-yl)-N-(4-(6-methoxypyrazin-2-yl)phenyl)butanamide], for which the IC50 was at most 100 nM.

`CCC(C(=O)Nc1ccc(-c2cncc(OC(C)C)c2)cc1F)c1ccnc(NS(=O)(=O)C2CC2)n1` (centres unmarked) [P92, 2-(2-(cyclopropanesulfonamido)pyrimidin-4-yl)-N-(2-fluoro-4-(5-isopropoxypyridin-3-yl)phenyl)butanamide]: the IC50 is 100 to 1000 nM.

Turning to `CCOc1cncc(-c2ccc(C(=O)NC(CC)c3ccnc(NS(=O)(=O)C4CC4)n3)nc2)n1` (centres unmarked) [P210, N-(1-(2-(cyclopropanesulfonamido)pyrimidin-4-yl)propyl)-5-(6-ethoxypyrazin-2-yl)picolinamide], the IC50 lay in the range of 100 to 1000 nM.

On to `CCC(C(=O)Nc1ccc(-c2cncc(OCC(F)(F)F)c2)cc1F)c1ccnc(NS(=O)(=O)C2CC2)n1` (centres unmarked) [P91, 2-(2-(cyclopropanesulfonamido)pyrimidin-4-yl)-N-(2-fluoro-4-(5-(2,2,2-trifluoroethoxy)pyridin-3-yl)phenyl)butanamide], for which the IC50 fell in the range of 100 to 1000 nM.

On to `CCC(NC(=O)c1ccc(-c2cncc(Cl)c2)cc1)c1ccnc(NS(=O)(=O)C2CC2)n1` (centres unmarked) [P214, 4-(5-chloropyridin-3-yl)-N-(1-(2-(cyclopropanesulfonamido)pyrimidin-4-yl)propyl)benzamide], for which the IC50 was in the range of 100 to 1000 nM.

On to `CCC(C(=O)Nc1ccc(-c2cncc(OCC(F)(F)F)c2)cc1)c1ccnc(NS(=O)(=O)C2CC2)n1` (centres unmarked) [P100, 2-(2-(cyclopropanesulfonamido)pyrimidin-4-yl)-N-(4-(5-(2,2,2-trifluoroethoxy)pyridin-3-yl)phenyl)butanamide], for which the IC50 lay within 100 to 1000 nM.

In the case of `CCOc1cncc(-c2ccc(C(=O)NC(C)(CC)c3ccnc(NS(=O)(=O)C4CC4)n3)c(F)c2)n1` (centres unmarked) [P220, N-(2-(2-(cyclopropanesulfonamido)pyrimidin-4-yl)butan-2-yl)-4-(6-ethoxypyrazin-2-yl)-2-fluorobenzamide], the IC50 lay within 100 to 1000 nM.

With `CCC(C(=O)Nc1ccc(-c2cncc(OCC(F)(F)F)c2)cn1)c1ccnc(NS(=O)(=O)C2CC2)n1` (centres unmarked) [P85], the IC50 was in the range of 100 to 1000 nM.
